Results on one sequence are retold here after article PMC5645128, “Hydrophobic residues are critical for the helix-forming, hemolytic and bactericidal activities of amphipathic antimicrobial peptide TP4” (PLoS ONE, 2017).

Ends that are not written are not given here.

The data set is classed as physicochemical. Here is the method:
Fig 4 Hydrophobicity and solubility of TP4 in the presence of sarkosyl and LPS. (A) ANS emission spectrum of TP4 in solution containing sarkosyl. TP4 (4 μg) was dissolved in 200 μl of 10 mM sodium phosphate, pH7.4, 0.1 M NaCl, containing various concentrations of sarkosyl (0.075%, w/v, designated as 1x). (B) ANS emission spectrum of TP4 in solution containing LPS. TP4 (4 μg) was dissolved in 200 μl of 10 mM sodium phosphate, pH7.4, containing various amounts of LPS as indicated. ANS was added stepwise to the final concentrations as indicated (lines 1 to 6 at 0, 10, 20, 30, 40 and 50 μM, respectively). Arrows indicate the emission maximum at 470 nm or 520 nm for bound- and free-form ANS, respectively. (C, D) Solubility of TP4 in solution containing either sarkosyl or LPS. TP4 (4 μg) dissolved in 200 μl of respective solution containing sarkosyl or LPS at concentration as indicated was spun at 14,000 x g for 15 min and analyzed by SDS-PAGE/Coomassie blue staining.
Fig 9 OprI-binding ability of TP4-derived peptides. (A) Competition for OprI binding by TP4-derived peptides. […] The gel pellet was analyzed by non-reducing SDS-PAGE/Coomassie blue staining. rOprI, recombinant OprI; S.t, Streptavidin. […] TP4-derived peptides (6 μg each) dissolved in 1x sarkosyl buffer (300 μl) were incubated at 37°C for 10 min, then spun at 14,000 x g for 15 min and analyzed by SDS-PAGE/Coomassie blue staining. […]

For FIHHIIGGLFSAGKAIHRLIRRRRR [TP4], the “solubility of TP4 in 1x Sar” value was “less than 80 μM”.
